Experimental data: US7691833B2, “Compositions and methods for preventing sporadic neoplasia in colon” (Trustees of Dartmouth College, priority 2002, dated 2010)

Assays:
large bowel adenomas = assay: Randomized, double-blind, placebo-controlled study of aspirin on occurrence of large bowel adenomas; type: in vivo, humans; conditions: for Relative Crude Risk (95% CI) / Adjusted Relative Risk (95% CI): versus placebo
Description: Patients were recruited at nine centers in North America.
By protocol, subjects were to have a complete surveillance colonoscopy 34-40 months after the qualifying examination. At each colonoscopy, the endoscopist recorded the estimated size and location of all polyps and mucosal lesions suspicious for neoplasia as per usual clinical practice. Each lesion was removed and examined histologically at the clinical center and by the study pathologist. Polyps were classified as neoplastic (adenomatous) or non-neoplastic (e.g., hyperplastic) by the study pathologist.
The primary study outcome was the proportion of subjects with one or more colorectal adenomas detected during the period from one year after randomization through the anticipated surveillance follow-up. If a surveillance colonoscopy was not performed during the protocol time window, the last examination at least one year after randomization was taken as the follow-up exam. Pre-specified secondary outcomes were the numbers of large-bowel adenomas and “advanced lesions”: tubulovillous adenomas (25 to 75 percent villous features), villous adenomas (>75 percent villous), large adenomas ([…]), severe dysplasia, or invasive cancer. Separate analyses were also conducted for lesions in the left colorectum (descending colon, sigmoid colon, and rectum) and right colorectum (the remainder of the bowel).

[1] = Serious medical events in the randomized, placebo-controlled aspirin study; conditions: for Serious Bleeding, Gastrointestinal, no of subjects / Serious Bleeding, Genitourinary, no of subjects: bleeding leading to hospitalization or surgical intervention
Description: A multi-center, randomized, double-blind, placebo-controlled study was performed that examined the effects of aspirin alone as well as folate treatment combined with aspirin on the occurrence of large bowel adenomas. The study has a 3-by-2 factorial design, investigating aspirin (placebo, 81 mg/day, or 325 mg/day) and folic acid (placebo or 1 mg/day). Patients were recruited at nine centers in North America. Eligible subjects had at least one of the following: (1) one or more histologically confirmed large-bowel adenomas removed within 3 months prior to recruitment, (2) one or more histologically confirmed large-bowel adenomas removed within 16 months before recruitment and a lifetime history of 2 or more confirmed large-bowel adenomas, or (3) a histologically confirmed large-bowel adenoma at least 1 cm in diameter removed within 16 months before recruitment. […] Eligible subjects were between 21 and 80 years old, in good health, and with anticipated colonoscopic follow-up three years after the qualifying examination. Exclusion criteria included a history of a familial colorectal cancer syndrome, invasive large-bowel cancer, malabsorption syndromes, any condition potentially worsened by supplemental aspirin or folic acid, or any condition commonly treated with aspirin, non-steroidal anti-inflammatory drugs (NSAIDs), or folate (e.g., recurrent arthritis, atherosclerotic vascular disease, folic acid deficiency).
Study coordinators at each center maintained contact with the subjects on a regular basis; interval questionnaires regarding possible side effects and medical events were completed every four months by each subject.
Subjects were regularly counseled regarding avoidance of aspirin and other NSATDs. Lists of products containing aspirin, ibuprofen, or naproxen were provided, and acetaminophen was distributed for treatment of minor febrile illnesses and pain. Every four months, subjects received questionnaires regarding adherence to study treatment; use of medications, over-the-counter drugs and nutritional supplements; and occurrence of symptoms, illnesses, and hospitalizations.
The statistical analysis compared the aspirin treatment groups irrespective of folic acid treatment. Subjects who underwent a follow-up endoscopy at least one year following randomization were included in the analyses. The predefined primary statistical analysis was a 2 degree-of-freedom chi-squared test for a contingency table comparing treatment groups regarding risk of one or more new adenomas. Crude risk ratios and 95 percent confidence intervals were used to compare treatment groups to placebo. Adjusted risk ratios were obtained from log-linear models with age, gender, clinical center, number of lifetime adenomas, and duration of follow-up as covariates. […] Possible modification of treatment effects by baseline characteristics was assessed using interaction terms in the log-linear model. Counts of other clinical endpoints were compared using Fisher's exact test. To compare the effect of aspirin on different types of polyps, a logistic regression model was used with generalized estimating equations (Liang and Zeger Biometrika 1986:13-22) to account for the clustering of multiple endpoints within patients. […] Two-sided P-values <0.05 were considered statistically significant.

[2] = Advanced Lesion, both aspirin groups combined
[3] = Any Adenoma, both aspirin groups combined
[4] = Tubular Adenoma, both aspirin groups combined

For `CC(=O)Oc1ccccc1C(=O)O` [Aspirin, acetylsalicylic acid], the “reduction in risk for advanced lesions” value (large bowel adenomas; 81 mg aspirin) was > 40%, the “reduction in risk of one or more adenomas” value (large bowel adenomas; 81 mg aspirin) was 19% and the “adjusted risk ratio for the detection of at least one advanced adenoma” value (large bowel adenomas; 81 mg aspirin, among women) was 0.18. For the same molecule, the “adjusted risk ratio for the detection of at least one advanced adenoma” value (large bowel adenomas; 81 mg aspirin, among younger subjects (younger than median age 57 years at randomization)) was 0.37, the “reduction in risk of one or more adenomas” value (large bowel adenomas; 325 mg aspirin, non-significant) was 4% and the “N with adenoma/N followed” value (large bowel adenomas; Advanced Lesion, 81 mg/day) was 28/366. For the same molecule, the “N with adenoma/N followed (percent)” value (large bowel adenomas; Advanced Lesion, 81 mg/day) was “(7.7%)”, the “Relative Crude Risk (95% CI)” value (large bowel adenomas; Advanced Lesion, 81 mg/day) was 0.59 and the “Adjusted Relative Risk (95% CI)” value (large bowel adenomas; Advanced Lesion, 81 mg/day, adjusted) was 0.58. For the same molecule, the “N with adenoma/N followed” value (large bowel adenomas; Advanced Lesion, 325 mg/day) was 38/355, the “N with adenoma/N followed (percent)” value (large bowel adenomas; Advanced Lesion, 325 mg/day) was “(10.7%)” and the “Relative Crude Risk (95% CI)” value (large bowel adenomas; Advanced Lesion, 325 mg/day) was 0.83. For the same molecule, the “Adjusted Relative Risk (95% CI)” value (large bowel adenomas; Advanced Lesion, 325 mg/day, adjusted) was 0.83, the “N with adenoma/N followed” value (large bowel adenomas; [2]) was 66/721 and the “N with adenoma/N followed (percent)” value (large bowel adenomas; [2]) was “(9.2%)”. The “Relative Crude Risk (95% CI)” value (large bowel adenomas; [2]) was 0.71, the “Adjusted Relative Risk (95% CI)” value (large bowel adenomas; Advanced Lesion, both aspirin groups combined, adjusted) was 0.70 and the “N with adenoma/N followed” value (large bowel adenomas; Any Adenoma, 81 mg/day) was 140/366. For the same molecule, the “N with adenoma/N followed (percent)” value (large bowel adenomas; Any Adenoma, 81 mg/day) was “(38.3%)”, the “N with adenoma/N followed (percent)” value (large bowel adenomas; Any Adenoma, 81 mg/day, listed as aspirin) was 38.3% and the “Relative Crude Risk (95% CI)” value (large bowel adenomas; Any Adenoma, 81 mg/day) was 0.81. The “Adjusted Relative Risk (95% CI)” value (large bowel adenomas; Any Adenoma, 81 mg/day, adjusted) was 0.83, the “N with adenoma/N followed” value (large bowel adenomas; Any Adenoma, 325 mg/day) was 160/355 and the “N with adenoma/N followed (percent)” value (large bowel adenomas; Any Adenoma, 325 mg/day) was “(45.1%)”. For the same molecule, the “N with adenoma/N followed (percent)” value (large bowel adenomas; Any Adenoma, 325 mg/day, listed as aspirin) was 45.1%, the “Relative Crude Risk (95% CI)” value (large bowel adenomas; Any Adenoma, 325 mg/day) was 0.96 and the “Adjusted Relative Risk (95% CI)” value (large bowel adenomas; Any Adenoma, 325 mg/day, adjusted) was 0.95. The “N with adenoma/N followed (percent)” value (large bowel adenomas; [3]) was “(41.6%)”, the “N with adenoma/N followed” value (large bowel adenomas; Any Adenoma, both aspirin groups combined (81 and 325 mg/day)) was 300/721 and the “Relative Crude Risk (95% CI)” value (large bowel adenomas; [3]) was 0.88. For the same molecule, the “Adjusted Relative Risk (95% CI)” value (large bowel adenomas; Any Adenoma, both aspirin groups combined, adjusted for age, sex, clinical center, length of follow-up, baseline number of lifetime adenoma) was 0.89, the “N with adenoma/N followed” value (large bowel adenomas; Tubular Adenoma, 81 mg/day) was 121/366 and the “N with adenoma/N followed (percent)” value (large bowel adenomas; Tubular Adenoma, 81 mg/day) was “(33.1%)”. The “Relative Crude Risk (95% CI)” value (large bowel adenomas; Tubular Adenoma, 81 mg/day) was 0.84, the “Adjusted Relative Risk (95% CI)” value (large bowel adenomas; Tubular Adenoma, 81 mg/day, adjusted) was 0.87 and the “N with adenoma/N followed” value (large bowel adenomas; Tubular Adenoma, 325 mg/day) was 141/355. The “N with adenoma/N followed (percent)” value (large bowel adenomas; Tubular Adenoma, 325 mg/day) was “(39.7%)”, the “Relative Crude Risk (95% CI)” value (large bowel adenomas; Tubular Adenoma, 325 mg/day) was 1.01 and the “Adjusted Relative Risk (95% CI)” value (large bowel adenomas; Tubular Adenoma, 325 mg/day, adjusted) was 1.00. For the same molecule, the “N with adenoma/N followed” value (large bowel adenomas; [4]) was 262/721, the “N with adenoma/N followed (percent)” value (large bowel adenomas; [4]) was “(36.3%)” and the “Relative Crude Risk (95% CI)” value (large bowel adenomas; [4]) was 0.92. The “Adjusted Relative Risk (95% CI)” value (large bowel adenomas; Tubular Adenoma, both aspirin groups combined, adjusted) was 0.93, the “reduction in risk of one or more adenomas” value (large bowel adenomas; both aspirin groups combined, non-significant) was 12% and the incidence of adenomas (large bowel adenomas; patients randomized to the aspirin groups) was “significantly lower”. The “Died, percent” value ([1]; 81 mg Aspirin, N = 377 (Table 2)) was 0.8%, the “Coronary Revascularization, no of subjects” value ([1]; 81 mg aspirin (N = 377)) was 3 and the “Deaths, no of subjects” value ([1]; 81 mg aspirin (N = 377)) was 3. The “Hospitalization, no of subjects” value ([1]; 81 mg aspirin (N = 377)) was 61, the “Myocardial Infarction, no of subjects” value ([1]; 81 mg aspirin (N = 377)) was 2 and the “Non-Colorectal Cancer, no of subjects” value ([1]; 81 mg aspirin (N = 377)) was 14. For the same molecule, the “Stroke, no of subjects” value ([1]; 81 mg aspirin (N = 377)) was 2, the “Serious Bleeding, Gastrointestinal, no of subjects” value ([1]; 81 mg aspirin (N = 377)) was 2 and the “Serious Bleeding, Genitourinary, no of subjects” value ([1]; 81 mg aspirin (N = 377)) was 6. The “stroke judged to be hemorrhagic” value ([1]; 81 mg aspirin group, after review of the medical records) was “One”, the “Died, percent” value ([1]; 325 mg Aspirin, N = 372 (Table 2)) was 1.1% and the “Coronary Revascularization, no of subjects” value ([1]; 325 mg aspirin (N = 372)) was 5. The “Deaths, no of subjects” value ([1]; 325 mg aspirin (N = 372)) was 4, the “Hospitalization, no of subjects” value ([1]; 325 mg aspirin (N = 372)) was 57 and the “Myocardial Infarction, no of subjects” value ([1]; 325 mg aspirin (N = 372)) was 4. The “Non-Colorectal Cancer, no of subjects” value ([1]; 325 mg aspirin (N = 372)) was 9, the “Stroke, no of subjects” value ([1]; 325 mg aspirin (N = 372)) was 5 and the “Serious Bleeding, Gastrointestinal, no of subjects” value ([1]; 325 mg aspirin (N = 372)) was 4. For the same molecule, the “Serious Bleeding, Genitourinary, no of subjects” value ([1]; 325 mg aspirin (N = 372)) was 2, the “Hospitalization, cancer and myocardial infarction frequency” value ([1]; aspirin groups versus placebo, differences compatible with chance) was “somewhat more frequently in the aspirin groups than in placebo” and the “patients diagnosed with a stroke (all non-fatal)” value ([1]; both aspirin groups together, none in placebo) was “Seven”.
